Test results: the NIST ThermoML archive (doi:10.1016/j.jct.2013.05.012)

Tests used:
[1] = wn = mass fraction of the nth substance listed; settings: 101 kPa, Liquid; for mass density: Pycnometric method; for viscosity: Capillary tube (Ostwald / Ubbelohde) method; for speed of sound: variable-path interferometer
[2] = mn = molality of the nth substance listed, in mol/kg; settings: 101 kPa, Liquid, variable-path interferometer
[3] = 101 kPa, Liquid, Linear variable-path acoustic interferometer

OC[C@H]1O[C@@](CO)(O[C@H]2O[C@H](CO)[C@@H](O)[C@H](O)[C@H]2O)[C@@H](O)[C@@H]1O [D-sucrose] + O
[1]
Settings	mass density [kg/m3]	speed of sound [m/s]	viscosity [mPa·s]
293.15 K, w1 = 0.05	1018.91	–	–
293.15 K, w1 = 0.1	1039.28	–	–
293.15 K, w1 = 0.15	1060.31	–	–
293.15 K, w1 = 0.2	1082.73	–	–
298.15 K, w1 = 0.05	1017.19	1516.5	1.011
298.15 K, w1 = 0.1	1037.45	1531.8	1.183
298.15 K, w1 = 0.15	1058.49	1543.6	1.418
298.15 K, w1 = 0.2	1080.77	1555.3	1.756
303.15 K, w1 = 0.05	1015.45	1526.6	0.9129
303.15 K, w1 = 0.1	1035.61	1541.8	1.061
303.15 K, w1 = 0.15	1056.67	1553	1.252
303.15 K, w1 = 0.2	1078.8	1564.6	1.549
308.15 K, w1 = 0.05	1013.72	1537.8	0.8285
308.15 K, w1 = 0.1	1033.76	1551.6	0.9614
308.15 K, w1 = 0.15	1054.84	1562	1.129
308.15 K, w1 = 0.2	1076.84	1575.2	1.396
313.15 K, w1 = 0.05	1011.98	1547.7	0.7457
313.15 K, w1 = 0.1	1031.93	1561.8	0.8804
313.15 K, w1 = 0.15	1053.01	1570.8	1.025
313.15 K, w1 = 0.2	1074.88	1583.9	1.25
318.15 K, w1 = 0.05	1010.23	1557.2	0.6946
318.15 K, w1 = 0.1	1030.09	1570.9	0.8179
318.15 K, w1 = 0.15	1051.2	1579.2	0.9402
318.15 K, w1 = 0.2	1072.93	1592.8	1.15

C[C@@H](O)[C@H](N)C(=O)O [L-threonine] + O
speed of sound [m/s], [2]
Settings	m1 = 0.0249	m1 = 0.0498	m1 = 0.0749	m1 = 0.0999	m1 = 0.125	m1 = 0.1499	m1 = 0.1749	m1 = 0.1999
298.15 K	1501.1	1505.5	1510.2	1515.2	1520.5	1526.1	1531.9	1538.1
303.15 K	1512.5	1516.9	1521.6	1526.5	1531.7	1537.3	1543.2	1549.4
308.15 K	1523.8	1528.1	1532.7	1537.5	1542.7	1548.2	1553.9	1560.1
313.15 K	1530.7	1534.9	1539.4	1544.1	1549.2	1554.5	1560.2	1566.1
318.15 K	1536.8	1540.9	1545.2	1549.8	1554.8	1560	1565.5	1571.3

O [water]
[3]
Settings	speed of sound [m/s]
303.15 K	1508.4
313.15 K	1526.8
318.15 K	1533
